According to patent US20250353873A1, “COMPOUNDS AND METHODS FOR MODULATING APOE EXPRESSION” (Ionis Pharmaceuticals, Inc., priority 2024, published 2025):
Strand notation (5' to 3'): a small letter for the sugar, then the base; units joined by * are phosphorothioate-linked, units joined directly phosphodiester-linked; [ ] holds rarer units or linkages, { } end groups; capitals alone tell only the bases. [ms] = mesyl phosphoramidate linkage; e = 2'-O-(2-methoxyethyl) (MOE); [5mC] = 5-methylcytosine; d = 2'-deoxy (DNA)

Legend:
[1] = tested on: human APOE RNA; test: Activity in APOE C57BL/6NTac-Apoeem7250 knock-in mice, single ICV bolus, 8 weeks (Example 11); type: in vivo; settings: single ICV bolus 300 μg, 8 weeks post treatment, normalized to mouse Ppia
Method: Modified oligonucleotides described above were tested in the APOE C57BL/6NTac-Apoeem7250 knock-in mouse model described above.
Each mouse received a single ICV bolus of 300 μg of modified oligonucleotide. A group of 3-4 mice received a single ICV bolus with PBS as a negative control.
Eight weeks post treatment, mice were sacrificed and RNA was extracted from cortical brain tissue and spinal cord for quantitative real-time RT-PCR analysis of RNA expression of APOE using human primer probe set RTS3073 (described herein above). APOE RNA levels were normalized to mouse Ppia. Mouse Ppia was amplified using primer probe set m_cyclo24 (described herein above). Results are presented as percent human APOE RNA relative to the amount of human APOE RNA in PBS treated animals, (% control). Each experiment is identified in separate tables below.

[2] = tested on: human APOE RNA; test: Activity in APOE C57BL/6NTac-Apoeem7250 knock-in mice, single ICV bolus, 16 weeks (Example 12); type: in vivo; settings: single ICV bolus 300 μg, 16 weeks post treatment, normalized to mouse Ppia
How it was run: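 A single 300 μg intracerebroventricular dose was given, with PBS-treated mice as reference; cortical and spinal cord tissue was taken 16 weeks later. RT-qPCR quantified human APOE RNA, Ppia-normalized, expressed relative to PBS animals (% control).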

Row | Substance | APOE RNA (% control) Cortex [1] [% control] | APOE RNA (% control) Spinal Cord [1] [% control] | APOE RNA (% control) Cortex [2] [% control] | APOE RNA (% control) Spinal Cord [2] [% control]
1 | 1693041: 5-10-5 MOE gapmer CTTGGTGAATCTTTATTAAA, linkages ssossszzzssssssosss (antisense e[5mC]*eT*eTeG*eG*dT*dG[ms]dA[ms]dA[ms]dT*d[5mC]*dT*dT*dT*dA*eTeT*eA*eA*eA) [compound 1693041] | 75 | 74 | 84 | 85
2 | 1693042: 5-10-5 MOE gapmer CTTGGTGAATCTTTATTAAA, linkages sssosszzzssssssssss (antisense e[5mC]*eT*eT*eGeG*dT*dG[ms]dA[ms]dA[ms]dT*d[5mC]*dT*dT*dT*dA*eT*eT*eA*eA*eA) [compound 1693042] | 77 | 81 | 90 | 65
3 | 1693043: 5-10-5 MOE gapmer CTTGGTGAATCTTTATTAAA, linkages sssoszzzzssssssosss (antisense e[5mC]*eT*eT*eGeG*dT[ms]dG[ms]dA[ms]dA[ms]dT*d[5mC]*dT*dT*dT*dA*eTeT*eA*eA*eA) [compound 1693043] | 89 | 83 | 80 | 73
4 | 1693044: 5-10-5 MOE gapmer CTTGGTGAATCTTTATTAAA, linkages sssoszzzzssssssssss (antisense e[5mC]*eT*eT*eGeG*dT[ms]dG[ms]dA[ms]dA[ms]dT*d[5mC]*dT*dT*dT*dA*eT*eT*eA*eA*eA) [compound 1693044] | 86 | 95 | 98 | 63
5 | 1693045: 5-10-5 MOE gapmer CTTGGTGAATCTTTATTAAA, linkages ssssozzzzssssssssss (antisense e[5mC]*eT*eT*eG*eGdT[ms]dG[ms]dA[ms]dA[ms]dT*d[5mC]*dT*dT*dT*dA*eT*eT*eA*eA*eA) [compound 1693045] | 88 | 86 | 93 | 60
6 | 1693047: 5-10-5 MOE gapmer CTTGGTGAATCTTTATTAAA, linkages sssoszzzzssssszosss (antisense e[5mC]*eT*eT*eGeG*dT[ms]dG[ms]dA[ms]dA[ms]dT*d[5mC]*dT*dT*dT*dA[ms]eTeT*eA*eA*eA) [compound 1693047] | 78 | 77 | 97 | 71
7 | 1693048: 5-10-5 MOE gapmer CTTGGTGAATCTTTATTAAA, linkages ssssszzzzssssszosss (antisense e[5mC]*eT*eT*eG*eG*dT[ms]dG[ms]dA[ms]dA[ms]dT*d[5mC]*dT*dT*dT*dA[ms]eTeT*eA*eA*eA) [compound 1693048] | 97 | 87 | 105 | 71
8 | 1693049: 5-10-5 MOE gapmer CTTGGTGAATCTTTATTAAA, linkages ssssszzzzssssszssss (antisense e[5mC]*eT*eT*eG*eG*dT[ms]dG[ms]dA[ms]dA[ms]dT*d[5mC]*dT*dT*dT*dA[ms]eT*eT*eA*eA*eA) [compound 1693049] | 101 | 96 | 93 | 81
9 | 1693050: 5-10-5 MOE gapmer TTGGTGAATCTTTATTAAAC, linkages soosszzzsssssssosss (antisense eT*eTeGeG*eT*dG[ms]dA[ms]dA[ms]dT*d[5mC]*dT*dT*dT*dA*dT*eTeA*eA*eA*e[5mC]) [compound 1693050] | 77 | 63 | 100 | 63
10 | 1693051: 5-10-5 MOE gapmer TTGGTGAATCTTTATTAAAC, linkages ssosszzzsssssssosss (antisense eT*eT*eGeG*eT*dG[ms]dA[ms]dA[ms]dT*d[5mC]*dT*dT*dT*dA*dT*eTeA*eA*eA*e[5mC]) [compound 1693051] | 114 | 76 | 97 | 79
11 | 1693052: 5-10-5 MOE gapmer TTGGTGAATCTTTATTAAAC, linkages sossszzzsssssssosss (antisense eT*eTeG*eG*eT*dG[ms]dA[ms]dA[ms]dT*d[5mC]*dT*dT*dT*dA*dT*eTeA*eA*eA*e[5mC]) [compound 1693052] | 65 | 79 | 91 | 85
12 | 1693082: 6-10-4 MOE gapmer TTGGTGAATCTTTATTAAAC, linkages ssssoozzszssszsssss (eT*eT*eG*eG*eTeGdA[ms]dA[ms]dT*d[5mC][ms]dT*dT*dT*dA[ms]dT*dT*eA*eA*eA*e[5mC]) [compound 1693082] | 113 | 54 | 81 | 72
13 | 1693084: 6-10-4 MOE gapmer TTGGTGAATCTTTATTAAAC, linkages ssssszzzszsszzsssss (eT*eT*eG*eG*eT*eG[ms]dA[ms]dA[ms]dT*d[5mC][ms]dT*dT*dT[ms]dA[ms]dT*dT*eA*eA*eA*e[5mC]) [compound 1693084] | 72 | 115 | 89 | 86
14 | 1693085: 6-10-4 MOE gapmer TTGGTGAATCTTTATTAAAC, linkages ssssszzzsssszzsssss (eT*eT*eG*eG*eT*eG[ms]dA[ms]dA[ms]dT*d[5mC]*dT*dT*dT[ms]dA[ms]dT*dT*eA*eA*eA*e[5mC]) [compound 1693085] | 86 | 79 | 93 | 71
